Source: patent publication US7323570B2, “Farnesyltransferase inhibitors” (Abbott Laboratories, priority 2000, dated 2008)

Molecular target: T1, farnesyltransferase (Rattus norvegicus, UniProt Q02293+Q04631)
T1 construct: The enzyme can be purified according to Cell, 62: 81-88 (1990), utilizing steps one, two, and three; from tissue; host or cells: rat brain
Experiment: Inhibition of farnesyltransferase (3H-farnesyldiphosphate / H-Ras filter assay)
Assay type: biochemical
Settings: 37° C., 30 minutes; for inhibition at 0.1 µM: test compound 10^−7M
Text: The ability of the compounds of the present invention to inhibit farnesyltransferase can be measured according to the method described in J. Biol. Chem., 266: 14603 (1991) or J. Biol. Chem., 270:660-664 (1995). Procedures for determination of the inhibition of farnesylation of the oncogene protein Ras are described in J. Biol. Chem., 266:15575-15578 (1991) and U.S. Pat. No. 5,245,061. Inhibition of rat brain farnesyltransferase can also be measured in vitro using an Amersham Life Science commercial scintillation proximity assay kit and substituting a biotin-K Ras B fragment (0.1 μM final concentration) for the biotin-lamin substrate provided by Amersham. The enzyme can be purified according to Cell, 62: 81-88 (1990), utilizing steps one, two, and three. […] The percent inhibition of the farnesylation caused by the compounds of the present invention (at 10^−6 M) compared to an uninhibited control sample can be evaluated in the same Amersham test system.
The mixture was brought to 37° C., treated with enzyme, incubated for 30 minutes, treated with 1 M HCl/ethanol (1 mL) to stop the reaction, stirred for 15 minutes at room temperature, diluted with ethanol (2 mL), filtered through a 2.5 cm glass microfiber filter (Whatman) with ethanol rinses (4×2 mL). The glass filter was transferred to a scintillation vial and treated with scintillation fluid (5 mL). The radioisotope retained on the glass fiber filter was counted and reflected the activity of the enzyme.

T1 sequence (Q02293 whole entry, one chain of several): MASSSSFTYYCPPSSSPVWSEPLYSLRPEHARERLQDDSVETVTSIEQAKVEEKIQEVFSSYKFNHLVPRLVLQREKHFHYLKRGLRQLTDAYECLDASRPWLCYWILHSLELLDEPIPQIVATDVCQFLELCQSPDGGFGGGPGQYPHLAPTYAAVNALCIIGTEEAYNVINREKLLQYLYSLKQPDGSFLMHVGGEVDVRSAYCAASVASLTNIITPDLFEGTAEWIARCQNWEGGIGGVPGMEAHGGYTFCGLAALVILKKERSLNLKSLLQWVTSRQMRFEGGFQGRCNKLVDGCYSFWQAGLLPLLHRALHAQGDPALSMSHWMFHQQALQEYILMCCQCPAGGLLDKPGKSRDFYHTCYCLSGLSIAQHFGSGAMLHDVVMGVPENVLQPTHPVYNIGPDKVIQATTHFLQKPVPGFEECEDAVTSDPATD

Cn1cncc1C(OCc1ccc(Cl)cc1-c1ccccc1)c1ccc(C#N)cc1 (stereo not drawn) [Example 2, 4-(((5-chloro(1,1′-biphenyl)-2-yl)methoxy)(1-methyl-1H-imidazol-5-yl)methyl)benzonitrile]
inhibition at 0.1 µM: > 66%

Cn1cncc1C(OCc1c(-c2cccc(Cl)c2)cc(C#N)c(=O)n1C)c1ccc(Cl)cc1 (stereo not drawn) [Example 43, 5-(3-chlorophenyl)-6-(((4-chlorophenyl)(1-methyl-1H-imidazol-5-yl)methoxy)methyl)-1-methyl-2-oxo-1,2-dihydro-3-pyridinecarbonitrile]
inhibition at 0.1 µM: > 81%

COc1cccc(-c2cc(C#N)ccc2OCC(F)(c2ccc(C#N)cc2)c2cncn2C)c1 (stereo not drawn) [Example 58, 6-(2-(4-cyanophenyl)-2-fluoro-2-(1-methyl-1H-imidazol-5-yl)ethoxy)-3′-methoxy-1,1′-biphenyl-3-carbonitrile]
inhibition at 0.01 µM (test compound 10^−8M): 96%
